Measurements reported in the Kinase Knowledgebase extract (Sharma et al. 2016).

biological target: CDK2 (human) (UniProt P24941); test: Enzyme Assay

IC50	Structure (SMILES)
< 5 µM	CC(C)c1[nH]ncc1-c1ccnc(NCc2cc(F)cc(F)c2)c1
< 5 µM	CC(C)c1[nH]ncc1-c1ccnc(NCc2cccc(C(F)(F)F)c2)c1
< 10 µM	CC(C)c1n[nH]cc1-c1ccnc(NCCCN(C)C)n1
< 5 µM	CC(C)c1[nH]ncc1-c1ccnc(NC(C)c2ccccc2)c1 (stereo unspecified)
< 5 µM	CC(C)c1[nH]ncc1-c1ccnc(NCCc2cccnc2)c1
< 0.5 µM	CC(C)c1[nH]ncc1-c1ccnc(NC2CCC2)c1
< 0.5 µM	CC(C)c1[nH]ncc1-c1ccnc(NC2CCCCCC2)c1
< 5 µM	Cc1ccccc1CNc1cc(-c2cn[nH]c2C2CCCC2)ccn1
< 15 µM	Cc1n[nH]cc1-c1ccnc(NCCCO)n1
< 5 µM	Cc1ccc(CNc2cc(-c3cn[nH]c3C3CCCC3)ccn2)cc1
< 5 µM	CC(C)c1[nH]ncc1-c1ccnc(NCC2CCCCCC2)c1
< 5 µM	Cc1ccccc1CNc1cc(-c2cn[nH]c2C2CC2)ccn1
< 1 µM	c1cc(-c2cn[nH]c2C2CCCC2)cc(NC2CC2)n1
< 5 µM	CC(C)c1[nH]ncc1-c1ccnc(NCCCO)c1
< 15 µM	CC(C)c1[nH]ncc1-c1ccnc(NC2CCN(C)CC2)c1
< 5 µM	c1cc(-c2cn[nH]c2C2CCCC2)cc(NCC2CC2)n1
< 5 µM	CC(C)c1[nH]ncc1-c1ccnc(NCc2ccccc2C(F)(F)F)c1
< 0.5 µM	CC(C)CNc1cc(-c2cn[nH]c2C(C)C)ccn1
< 5 µM	CCC(CC)c1[nH]ncc1-c1ccnc(NC2CCN(C(=O)OC(C)(C)C)CC2)c1
< 5 µM	CCCCNc1cc(-c2cn[nH]c2C(C)C)ccn1
< 5 µM	COCCCNc1cc(-c2cn[nH]c2C(C)C)ccn1
< 1 µM	CC(C)c1[nH]ncc1-c1ccnc(NC2CC2)c1
< 5 µM	CCC(CC)c1[nH]ncc1-c1ccnc(NCc2ccccc2C)c1
< 5 µM	CC(C)c1[nH]ncc1-c1ccnc(NCc2ccncc2)c1
< 5 µM	CC(C)c1[nH]ncc1-c1ccnc(NCc2ccco2)c1
< 5 µM	CC(C)c1[nH]ncc1-c1ccnc(NCC2CCCCC2)c1
< 5 µM	CC(C)c1[nH]ncc1-c1ccnc(NCCc2ccccn2)c1

IC50	Structure (SMILES)
< 5 µM	CC(C)c1[nH]ncc1-c1ccnc(NC2CCc3ccccc32)c1 (stereo unspecified)
< 15 µM	CN1CCC(Nc2cc(-c3cn[nH]c3C(C)(C)C)ccn2)CC1
< 5 µM	CCC(CC)c1[nH]ncc1-c1ccnc(NC2CCc3ccccc32)c1 (stereo unspecified)
< 5 µM	CC(C)c1[nH]ncc1-c1ccnc(NCc2ccccc2)c1
< 1 µM	CC(C)CNc1cc(-c2cn[nH]c2C2CCCC2)ccn1
< 5 µM	CCC(C)c1[nH]ncc1-c1ccnc(NCc2ccccc2C)c1 (stereo unspecified)
< 5 µM	c1ccc(CCNc2cc(-c3cn[nH]c3C3CCCC3)ccn2)cc1
< 10 µM	CC(C)c1[nH]ncc1-c1ccnc(NCCN2CCOCC2)c1
< 5 µM	CC(C)c1[nH]ncc1-c1ccnc(NCc2ccc3c(c2)OCO3)c1
< 5 µM	Cc1cccc(CNc2cc(-c3cn[nH]c3C3CCCC3)ccn2)c1
< 10 µM	CCC(CC)c1[nH]ncc1-c1ccnc(NC2CCN(C)CC2)c1
< 1 µM	CCC(C)Nc1cc(-c2cn[nH]c2C(C)C)ccn1 (stereo unspecified)
< 5 µM	CC(C)c1[nH]ncc1-c1ccnc(NCC2CC2)c1
< 5 µM	Cc1cccc(CNc2cc(-c3cn[nH]c3C(C)C)ccn2)c1
< 5 µM	CC(C)CCNc1cc(-c2cn[nH]c2C(C)C)ccn1
< 0.5 µM	CC(C)c1[nH]ncc1-c1ccnc(NC2CCCCC2)c1
< 5 µM	Cc1ccccc1CNc1cc(-c2cn[nH]c2C(C)C)ccn1
< 1 µM	CC(C)c1[nH]ncc1-c1ccnc(NCCc2ccccc2)c1
< 5 µM	CC(C)c1[nH]ncc1-c1ccnc(NCc2ccc(F)cc2)c1
< 10 µM	CC(C)c1[nH]ncc1-c1ccnc(NCCOc2ccccc2)c1
< 5 µM	CCC(C)c1[nH]ncc1-c1ccnc(NC2CCc3ccccc32)c1 (stereo unspecified)
< 5 µM	COc1ccc(CNc2cc(-c3cn[nH]c3C(C)C)ccn2)cc1
< 0.05 µM	CC(C)c1[nH]ncc1-c1ccnc(Nc2ccccc2)c1
< 15 µM	CC(C)c1[nH]ncc1-c1ccnc(NC(CO)C(C)C)c1 (stereo unspecified)
< 10 µM	COCCNc1cc(-c2cn[nH]c2C(C)C)ccn1
< 5 µM	Cc1ccc(CNc2cc(-c3cn[nH]c3C(C)C)ccn2)cc1
< 10 µM	CC(C)c1[nH]ncc1-c1ccnc(NCC2CCCO2)c1 (stereo unspecified)

Continued, compound first:

Structure (SMILES)	IC50
Cc1ccccc1CNc1nccc(-c2c[nH]nc2C(C)C)n1	< 1 µM
CC(C)c1n[nH]cc1-c1ccnc(NC2CCN(Cc3ccccc3)CC2)n1	< 1 µM
c1cc(-c2cn[nH]c2C2CCCC2)cc(NC2CCCC2)n1	< 0.5 µM
CC(C)c1n[nH]cc1-c1ccnc(N[C@@H]2CCc3ccccc32)n1	< 5 µM
CC(C)c1n[nH]cc1-c1ccnc(N[C@H]2CCc3ccccc32)n1	< 0.5 µM
Cc1n[nH]cc1-c1ccnc(NC2CCN(Cc3ccccc3)C2)n1 (stereo unspecified)	< 10 µM
Cc1n[nH]cc1-c1ccnc(NC2CCCCC2)n1	< 5 µM
Cc1n[nH]cc1-c1ccnc(NCc2ccncc2)n1	< 15 µM
Cc1cnc(NC2CCN(C)CC2)nc1-c1c[nH]nc1C(C)C	< 5 µM
Cc1n[nH]cc1-c1ccnc(NC2CCC2)n1	< 5 µM
CC(C)c1n[nH]cc1-c1ccnc(NCc2ccccc2C(F)(F)F)n1	< 5 µM
Cc1ccccc1CNc1cc(-c2cn[nH]c2C2CCCCCC2)ccn1	< 10 µM
CC(C)c1n[nH]cc1-c1ccnc(N[C@H]2CCCc3ccccc32)n1	< 0.5 µM
CC(C)c1n[nH]cc1-c1ccnc(NC2CCCCC2C)n1 (stereo unspecified)	< 1 µM
CCC(C)Nc1nccc(-c2c[nH]nc2C)n1 (stereo unspecified)	< 5 µM
CCC(Nc1nccc(-c2c[nH]nc2C(C)C)n1)c1ccccc1 (stereo unspecified)	< 5 µM
Cc1n[nH]cc1-c1ccnc(NCc2cc(F)cc(F)c2)n1	< 5 µM
CC(C)c1n[nH]cc1-c1ccnc(NC2CC(C)(C)c3ccccc32)n1 (stereo unspecified)	< 5 µM
Cc1n[nH]cc1-c1ccnc(NC2CCN(C)CC2)n1	< 15 µM
CC(C)c1n[nH]cc1-c1ccnc(NCc2ccccc2Cl)n1	< 1 µM
Cc1n[nH]cc1-c1ccnc(NC2CCCC2)n1	< 5 µM
COCC(C)Nc1nccc(-c2c[nH]nc2C(C)C)n1 (stereo unspecified)	< 1 µM
Cc1n[nH]cc1-c1ccnc(NC2CCCCCC2)n1	< 5 µM
FC(F)(F)c1ccccc1CNc1cc(-c2cn[nH]c2C2CCCC2)ccn1	< 5 µM

Structure (SMILES)	IC50
CC(C)c1n[nH]cc1-c1ccnc(N[C@H](C)c2ccccn2)n1	< 5 µM
CC(C)c1n[nH]cc1-c1ccnc(NC2CCN(C)CC2)n1	< 1 µM
Cc1cc(C)n(CCNc2nccc(-c3c[nH]nc3C(C)C)n2)n1	< 15 µM
COc1ccccc1CNc1nccc(-c2c[nH]nc2C)n1	< 15 µM
Cc1n[nH]cc1-c1ccnc(NCc2ccc3c(c2)OCO3)n1	< 10 µM
CC(C)c1n[nH]cc1-c1nc(NC2CCN(C)CC2)ncc1Br	< 5 µM
Cc1n[nH]cc1-c1ccnc(NCc2ccc(F)cc2)n1	< 10 µM
CC(C)c1n[nH]cc1-c1ccnc(NCCCNC2CCCCC2)n1	< 10 µM
Cc1n[nH]cc1-c1ccnc(NCCc2cccnc2)n1	< 10 µM
CC(C)c1nn(C)cc1-c1ccnc(NC2CCN(C)CC2)n1	< 5 µM
CC(C)c1n[nH]cc1-c1ccnc(NC2Cc3ccccc3C2)n1	< 0.5 µM
Cc1n[nH]cc1-c1ccnc(NCc2cccc(C(F)(F)F)c2)n1	< 10 µM
Cc1n[nH]cc1-c1ccnc(NCCCn2ccnc2)n1	< 10 µM
Cc1n[nH]cc1-c1ccnc(NCC2CCCCC2)n1	< 10 µM
Cc1n[nH]cc1-c1ccnc(NCCOc2ccccc2)n1	< 15 µM
CC(C)c1n[nH]cc1-c1ccnc(NC2CCc3ccccc32)n1 (stereo unspecified)	< 1 µM
CC(C)c1n[nH]cc1-c1ccnc(NC2CCc3cc(F)ccc32)n1 (stereo unspecified)	< 0.5 µM
CC(C)c1n[nH]cc1-c1ccnc(NC2CN3CCC2CC3)n1 (stereo unspecified)	< 5 µM
Cc1n[nH]cc1-c1ccnc(NC2CCCNC2)n1 (stereo unspecified)	< 5 µM
CCC(C)Nc1nccc(-c2c[nH]nc2C(C)C)n1 (stereo unspecified)	< 0.5 µM
Cc1n[nH]cc1-c1ccnc(NC2CCc3ccccc32)n1 (stereo unspecified)	< 10 µM
COc1ccc(CNc2nccc(-c3c[nH]nc3C)n2)cc1	< 15 µM
CC(CCc1ccccc1)Nc1nccc(-c2c[nH]nc2C(C)C)n1 (stereo unspecified)	< 5 µM
CC(C)c1n[nH]cc1-c1ccnc(NCc2c(F)cccc2F)n1	< 5 µM

Structure (SMILES)	IC50
Cc1n[nH]cc1-c1ccnc(NCCc2c[nH]c3ccccc23)n1	< 10 µM
Cc1nnc(CCNc2nccc(-c3c[nH]nc3C(C)C)n2)[nH]1	< 5 µM
c1ccc2c(c1)CC(Nc1cc(-c3cn[nH]c3C3CCCCCC3)ccn1)C2	< 1 µM
CC(C)c1n[nH]cc1-c1ccnc(N[C@@H](C)c2ccccc2)n1	< 10 µM
Cc1nnc(C(C)Nc2nccc(-c3c[nH]nc3C(C)C)n2)[nH]1 (stereo unspecified)	< 15 µM
Cc1n[nH]cc1-c1ccnc(NC2CCN(c3ccccc3)CC2)n1	< 5 µM
c1ccc2c(c1)CC(Nc1cc(-c3cn[nH]c3C3CC3)ccn1)C2	< 1 µM
CC(C)c1n[nH]cc1-c1ccnc(NC(C)c2ccccc2)n1 (stereo unspecified)	< 5 µM
CC(C)c1n[nH]cc1-c1ccnc(NCc2ccc(N(C)C)cc2)n1	< 5 µM
Cc1n[nH]cc1-c1ccnc(NC2Cc3ccccc3C2)n1	< 5 µM
CC(=O)NCCNc1nccc(-c2c[nH]nc2C)n1	< 15 µM
Cc1n[nH]cc1-c1ccnc(NCCC#N)n1	< 15 µM
c1cc(-c2cn[nH]c2C2CCCC2)cc(NC2CCCCCC2)n1	< 1 µM
CC(C)COCCCNc1nccc(-c2c[nH]nc2C(C)C)n1	< 5 µM
CC(CCCC(C)(C)O)Nc1nccc(-c2c[nH]nc2C(C)C)n1 (stereo unspecified)	< 5 µM
CC(C)c1n[nH]cc1-c1ccnc(NC(C)c2ccccn2)n1 (stereo unspecified)	< 10 µM
Cc1n[nH]cc1-c1ccnc(NCC(C)C)n1	< 5 µM
c1ccc2c(c1)CCC2Nc1cc(-c2cn[nH]c2C2CC2)ccn1 (stereo unspecified)	< 5 µM
CC(C)c1n[nH]cc1-c1ccnc(NC2CCCCC2)n1	< 0.05 µM
CC(C)CNc1nccc(-c2c[nH]nc2C(C)C)n1	< 0.1 µM
CCCCNc1nccc(-c2c[nH]nc2C)n1	< 10 µM
CC(C)c1n[nH]c(Br)c1-c1ccnc(NC2CCN(C)CC2)n1	< 5 µM
c1cc(-c2cn[nH]c2C2CCCC2)cc(NC2CCCCC2)n1	< 1 µM
CC(C)c1n[nH]cc1-c1ccnc(NC2CCCc3ccccc32)n1 (stereo unspecified)	< 1 µM
